In patent publication EP1222163B1, “2'-SUBSTITUTED 1,1'-BIPHENYL-2-CARBONAMIDES, METHOD FOR THE PRODUCTION THEREOF, USE THEREOF AS A MEDICAMENT AND PHARMACEUTICAL PREPARATIONS CONTAINING SAID COMPOUNDS” (Sanofi-Aventis Deutschland GmbH, priority 1999, dated 2001):

Target: T1, Kv1.5-Kanäle aus dem Menschen (Homo sapiens, UniProt P22460)
T1 construct: expressed in transfected cells; host or cells: Xenopus laevis oocytes injected with in vitro synthesised Kv1.5-coding RNA
Test: Kv1.5 currents in Xenopus oocytes, two-microelectrode voltage clamp
Format: cell-based
Excerpt: Kv1.5-Kanäle aus dem Menschen wurden in Xenopus Oozyten expremiert. Hierfür wurden zuerst Oozyten aus Xenopus laevis isoliert und defollikuliert. Anschließend wurde in diese Oozyten in vitro synthetisierte Kv1.5 kodierende RNA injiziert. Nach 1 - 7 Tagen Kv1.5-Proteinexpression wurden an den Oozyten mit der Zwei-Mikroelektroden Voltage-Clamp Technik Kv1.5-Ströme gemessen. Die Kv1.5-Kanäle wurden hierbei in der Regel mit 500 ms dauernden Spannungssprüngen auf 0 mV und 40 mV aktiviert. Das Bad wurde mit einer Lösung der nachfolgenden Zusammensetzung durchspült: NaCl 96 mM, KCl 2 mM, CaCl2 1,8 mM, MgCl2 1 mM, HEPES 5 mM (titriert mit NaOH auf pH 7,4). Diese Experimente wurden bei Raumtemperatur durchgeführt. Zur Datenerhebung und Analyse wurden eingesetzt: Geneclamp Verstärker (Axon Instruments, Foster City, USA) und MacLab D/A-Umwandler und Software (ADInstruments, Castle Hill, Australia). Die erfindungsgemäßen Substanzen wurden getestet, indem sie in unterschiedlichen Konzentrationen der Badlösung zugefügt wurden. Die Effekte der Substanzen wurden als prozentuale Inhibition des Kv1.5-Kontrollstromes berechnet, der erhalten wurde, wenn der Lösung keine Substanz zugesetzt wurde. Die Daten wurden anschließend mit der Hill-Gleichung extrapoliert, um die Hemmkonzentrationen IC50 für die jeweiligen Substanzen zu bestimmen.

T1 sequence (P22460 whole entry): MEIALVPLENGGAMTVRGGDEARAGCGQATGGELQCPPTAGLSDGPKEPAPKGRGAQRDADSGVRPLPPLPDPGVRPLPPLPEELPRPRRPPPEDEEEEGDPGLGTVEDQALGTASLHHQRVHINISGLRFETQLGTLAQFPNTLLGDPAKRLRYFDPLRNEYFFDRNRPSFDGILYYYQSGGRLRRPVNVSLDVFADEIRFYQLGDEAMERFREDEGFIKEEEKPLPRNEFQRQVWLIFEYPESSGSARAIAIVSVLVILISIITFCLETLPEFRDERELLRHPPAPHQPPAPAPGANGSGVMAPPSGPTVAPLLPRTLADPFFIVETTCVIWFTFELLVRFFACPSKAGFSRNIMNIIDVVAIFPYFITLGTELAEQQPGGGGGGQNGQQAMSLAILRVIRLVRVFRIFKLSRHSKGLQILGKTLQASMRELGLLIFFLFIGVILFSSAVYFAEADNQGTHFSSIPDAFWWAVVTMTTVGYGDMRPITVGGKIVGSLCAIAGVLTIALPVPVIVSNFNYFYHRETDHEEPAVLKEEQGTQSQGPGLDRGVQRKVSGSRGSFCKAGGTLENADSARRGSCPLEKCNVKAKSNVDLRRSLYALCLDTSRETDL

NC(=O)[C@H](Cc1ccccc1)NC(=O)c1ccccc1-c1ccccc1CNS(=O)(=O)c1cccc2cccnc12 [Beispiel 12 l]
IC50: 10.3 µM
